Measurements: PubChem BioAssay AID248 (DTP/NCI, 2004)
Where “and” joins values, the source holds several entries; their conditions need not be identical. Equal entries are not always repeated. Toxic doses and inconclusive results are not listed. Cut-off read from the data, not from the text of the source: active = T/C of 150% or more; inactive = T/C below 125%.

Tested on: L1210 leukemia ip in BDF1 mice, survival T/C
Assay: NCI In Vivo Anticancer Drug Screen. Data for tumor model L1210 Leukemia (intraperitoneal) in B6D2F1 (BDF1) mice
Settings: endpoint: mean survival time, higher = longer survival
Procedure, shortened: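 Survival endpoint. Drug-treated group vs vehicle group, expressed as T divided by C. Tumor passaged by transplantation.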

[1] = dose: 100.0 mg/kg/injection, schedule: Q01DX009 (ip), vehicle: saline
[2] = dose: 100.0 mg/kg/injection, schedule: Q04DX003 (ip), vehicle: saline
[3] = dose: 200.0 mg/kg/injection, schedule: Q04DX003 (ip), vehicle: saline
[4] = dose: 400.0 mg/kg/injection, schedule: Q04DX003 (ip), vehicle: saline
[5] = dose: 100.0 mg/kg/injection, schedule: Q04DX003 (ip), vehicle: saline with Tween-80
[6] = dose: 200.0 mg/kg/injection, schedule: Q04DX003 (ip), vehicle: saline with Tween-80
[7] = dose: 400.0 mg/kg/injection, schedule: Q04DX003 (ip), vehicle: saline with Tween-80
[8] = dose: 12.5 mg/kg/injection, schedule: Q01DX009 (ip), vehicle: saline
[9] = dose: 25.0 mg/kg/injection, schedule: Q01DX009 (ip), vehicle: saline
[10] = dose: 50.0 mg/kg/injection, schedule: Q01DX009 (ip), vehicle: saline
[11] = dose: 100.0 mg/kg/injection, schedule: Q01DX001 (ip), vehicle: saline
[12] = dose: 200.0 mg/kg/injection, schedule: Q01DX001 (ip), vehicle: saline

Measured: T/C

CC#N.[CH-]=C(C)C.[Cl][Pt][Cl]
inactive: dose: 6.25 mg/kg/injection, schedule: Q04DX003 (ip), vehicle: water 95 % of control | dose: 12.5 mg/kg/injection, schedule: Q04DX003 (ip), vehicle: water 97 % of control | dose: 25.0 mg/kg/injection, schedule: Q04DX003 (ip), vehicle: water 100 % of control | dose: 50.0 mg/kg/injection, schedule: Q04DX003 (ip), vehicle: water 101 % of control

Nc1ccc(C(=O)O)c([N+](=O)[O-])c1
inactive: [1] 102 % of control | [2] 98 % of control | dose: 200.0 mg/kg/injection, schedule: Q01DX009 (ip), vehicle: saline 100 % of control | [3] 93 % of control | dose: 400.0 mg/kg/injection, schedule: Q01DX009 (ip), vehicle: saline 100 % of control | [4] 94 % of control

NC(=O)c1nc2n(c1N)CCC2
inactive: dose: 100.0 mg/kg/injection, schedule: Q01DX009 (ip), vehicle: saline with Tween-80 108 % of control | [5] 97 % of control | dose: 200.0 mg/kg/injection, schedule: Q01DX009 (ip), vehicle: saline with Tween-80 110 % of control | [6] 100 % of control | dose: 400.0 mg/kg/injection, schedule: Q01DX009 (ip), vehicle: saline with Tween-80 105 % of control | [7] 94 % of control

COCCN1CCC(C)(CO)C1 (stereo unspecified)
inactive: [2] 87 % of control | [3] 93 % of control | [4] 92 % of control

COC(=O)C1CCC(=O)CC1
inactive: dose: 100.0 mg/kg/injection, schedule: Q04DX002 (ip), vehicle: saline 96 % of control | dose: 200.0 mg/kg/injection, schedule: Q04DX002 (ip), vehicle: saline 101 % of control | dose: 400.0 mg/kg/injection, schedule: Q04DX002 (ip), vehicle: saline 99 % of control

Cc1cc(=O)c(CCl)n[nH]1
inactive: dose: 25.0 mg/kg/injection, schedule: Q01DX009 (ip), vehicle: Klucel (hydroxypropylcellulose) (HPC) 115 % of control | dose: 25.0 mg/kg/injection, schedule: Q04DX003 (ip), vehicle: Klucel (hydroxypropylcellulose) (HPC) 120 % of control | dose: 50.0 mg/kg/injection, schedule: Q04DX003 (ip), vehicle: Klucel (hydroxypropylcellulose) (HPC) 116 % of control | dose: 100.0 mg/kg/injection, schedule: Q04DX003 (ip), vehicle: Klucel (hydroxypropylcellulose) (HPC) 97 % of control and 89 % of control

O=C1c2ccccc2-c2cc(Br)c([N+](=O)[O-])cc21
inactive: dose: 50.0 mg/kg/injection, schedule: Q01DX001 (ip), vehicle: carboxymethylcellulose (CMC) 93 % of control | dose: 100.0 mg/kg/injection, schedule: Q01DX001 (ip), vehicle: carboxymethylcellulose (CMC) 96 % of control | dose: 200.0 mg/kg/injection, schedule: Q01DX001 (ip), vehicle: carboxymethylcellulose (CMC) 86 % of control | dose: 400.0 mg/kg/injection, schedule: Q01DX001 (ip), vehicle: carboxymethylcellulose (CMC) 88 % of control

CC[N+](C)(CC)CCCNC(=O)C(c1ccccc1)c1ccccc1
inactive: [5] 100 % of control

CC(C)/C=N\O
inactive: [5] 104 % of control | [6] 123 % of control | [7] 109 % of control

COc1cc2ccc3c(c2cc1OC)CN(C)CC3
inactive: [8] 91 % of control | [9] 97 % of control | [10] 100 % of control | [2] 103 % of control

Cc1ccc(S(=O)(=O)OCCN(CCOS(=O)(=O)c2ccc(C)cc2)c2ccc(N=O)cc2)cc1
inactive: dose: 50.0 mg/kg/injection, schedule: Q01DX001 (ip), vehicle: saline 115 % of control | [11] 124 % of control

CN(C)C(=O)C(c1ccccc1)[P+](C)(c1ccccc1)c1ccccc1 (stereo unspecified)
inactive: dose: 75.0 mg/kg/injection, schedule: Q01DX001 (ip), vehicle: other 95 % of control

O=C1CCCC2C1C1(O)CCC2(O)c2cccc(O)c21 (stereo unspecified)
inactive: dose: 6.25 mg/kg/injection, schedule: Q01DX009 (ip), vehicle: saline 109 % of control | [8] 102 % of control | [9] 101 % of control | [10] 98 % of control | [11] 96 % of control | [1] 91 % of control | [12] 103 % of control

CCCCCCC(CO)CO
inactive: [11] 89 % of control | [12] 91 % of control | dose: 400.0 mg/kg/injection, schedule: Q01DX001 (ip), vehicle: saline 94 % of control
